In PubChem BioAssay (NCI):
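Five compound concentrations were applied to cells in 96-well plates for 48 hours; endpoints were derived by simple linear interpolation of the resulting dose-response curve. Abbreviation: GI50, concentration required for 50% inhibition of growth. TGI: concentration producing complete growth inhibition.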

Tests used:
Assay in all cases: NCI tumour cell line growth inhibition, 48 h
LXFL 529 NSCLC = tested on: LXFL 529 NSCLC
RXF-631 renal = tested on: RXF-631 renal
DLD-1 colon = tested on: DLD-1 colon
KM20L2 colon = tested on: KM20L2 colon
HOP-18 NSCLC = tested on: HOP-18 NSCLC
DMS 273 small cell lung = tested on: DMS 273 small cell lung
MDA-N = tested on: MDA-N
M19-MEL melanoma = tested on: M19-MEL melanoma
XF 498 CNS = tested on: XF 498 CNS

SMILES | TGI (LXFL 529 NSCLC) [µM] | TGI (RXF-631 renal) [µM] | TGI (DLD-1 colon) [µM] | TGI (KM20L2 colon) [µM] | TGI (HOP-18 NSCLC) [µM] | TGI (DMS 273 small cell lung) [µM] | TGI (MDA-N) [µM] | TGI (M19-MEL melanoma) [µM] | GI50 (MDA-N) [µM] | TGI (XF 498 CNS) [µM] | GI50 (LXFL 529 NSCLC) [µM] | GI50 (DLD-1 colon) [µM] | GI50 (KM20L2 colon) [µM] | GI50 (M19-MEL melanoma) [µM]
O=C1C=C(Br)c2c(-c3ccccc3)oc3cccc1c23 | > 100 | > 100 | > 100 | > 100 | > 100 | > 100 | 66 | > 100 |  |  |  |  |  | 
O=C(N/N=C/c1ccc2c(c1)CCC2)c1ccccc1O |  |  |  |  |  |  | 64.8 |  |  |  |  |  |  | 
COc1ccc(N=c2ssc3c(=S)ssc23)cc1 | 31.9 |  | 54.5 |  |  | 74.4 |  | > 100 |  |  |  |  |  | 
COc1cccc(C=Nc2cc(C)ccn2)c1O.COc1cccc(C=Nc2cc(C)ccn2)c1O.[Cu] |  |  |  |  |  |  | 41.3 |  | 16.3 |  |  |  |  | 
C[C@]12CCC3[C@@H](CC[C@@H]4c5nonc5CC[C@]34C)C1CCC(=O)N2 (stereo partly drawn) | > 100 | > 100 |  | > 100 | > 100 | > 100 |  | > 100 |  | > 100 |  |  |  | 
COc1cc(C(=O)C/C(CCC(=O)Nc2ccccc2[N+](=O)[O-])=N\NC(=O)CC#N)ccc1O | > 100 | > 100 | > 100 | > 100 | > 100 | > 100 |  | > 100 |  | > 100 |  |  |  | 
CCCCCCc1cc(C(=O)Nc2cccc(C(F)(F)F)c2)nc(N)n1 | > 100 | > 100 | > 100 | > 100 | > 100 | > 100 |  | > 100 |  |  |  |  |  | 
CCOC(=O)c1oc2ccc(OC)c3c2c1CCC3 | > 100 |  | > 100 |  |  | > 100 |  | > 100 |  | > 100 |  |  |  | 
CC(=O)OC1CCn2nnc(CO[Si](C)(C)C(C)(C)C)c21 (stereo not drawn) | > 100 |  | > 100 | > 100 | > 100 | > 100 |  |  |  | > 100 |  |  |  | 
O=C(O)C/C=C/CC(=O)O |  |  |  |  |  |  | > 100 |  |  |  |  |  |  | 
Brc1cccc(C2SCc3nc4ccccc4n32)c1 (stereo not drawn) | > 100 |  | 29.9 |  |  |  |  | 49.1 |  |  |  |  |  | 
C=C1COC(/C=C(\C)CC/C=C(\C)CCl)C1 (stereo not drawn) | > 100 |  | > 100 | > 100 |  | > 100 |  | > 100 |  | > 100 |  |  |  | 
N#CC(C(=O)CCC(=O)Nc1cccc(Cl)c1)c1ccccc1 (stereo not drawn) | > 100 | > 100 | > 100 | > 100 | > 100 | > 100 |  | > 100 |  |  |  |  |  | 
COc1ccc(C(OCC2OC(n3ccc(NC(=O)c4ccccc4)nc3=O)C(O)C2O)(c2ccccc2)c2ccccc2)cc1 (stereo not drawn) |  |  |  |  |  |  | 3.79 |  |  |  |  |  |  | 
CCOC(=O)C(=O)Nc1c(CC)cccc1C(C)C | > 100 |  | > 100 | > 100 |  | > 100 |  | > 100 |  | > 100 |  |  |  | 
C[Si](C)(C)OC1(C#N)C2C3CC4C2C(=O)C2C4C3C21 (stereo not drawn) | > 100 |  | > 100 | > 100 | > 100 | > 100 |  | > 100 |  |  |  |  |  | 
Nn1c(-c2ccccc2Cl)nc2ccccc2c1=O | > 100 | > 100 | > 100 | > 100 | > 100 | > 100 |  | > 100 |  | > 100 |  |  |  | 
COC1CC(OS(=O)(=O)c2ccc(C)cc2)C(OC(=O)c2ccccc2)C(C)O1 (stereo not drawn) | > 100 |  | > 100 | > 100 | > 10 | > 10 |  | > 100 |  | > 100 | > 100 | > 100 | > 100 | > 100

SMILES | TGI (LXFL 529 NSCLC) [µM] | TGI (RXF-631 renal) [µM] | TGI (DLD-1 colon) [µM] | TGI (KM20L2 colon) [µM] | TGI (HOP-18 NSCLC) [µM] | TGI (DMS 273 small cell lung) [µM] | TGI (MDA-N) [µM] | TGI (M19-MEL melanoma) [µM] | GI50 (MDA-N) [µM] | TGI (XF 498 CNS) [µM] | GI50 (LXFL 529 NSCLC) [µM] | GI50 (DLD-1 colon) [µM] | GI50 (KM20L2 colon) [µM] | GI50 (M19-MEL melanoma) [µM]
CCC1CN2CCc3cc(OC)c(OC)cc3C2CC1CC1c2cc(OC)c(OC)cc2CCN1C(=O)C1CCCN1C(=O)OCc1ccccc1 (stereo not drawn) | 29.9 | 33.9 | 31 | 31.4 | 53.7 | 30.3 |  | 28.8 |  | 30.4 |  |  |  | 
Cn1cnc2nc(Cl)nc(NC(C)(C)C(C)(C)O)c21 |  |  | > 100 | > 100 | > 100 | > 100 |  |  |  | > 100 |  |  |  | 
CCOC(=O)C1Oc2ccc([N+](=O)[O-])c3c2C1(O)CCC3 (stereo not drawn) | > 100 | > 100 | > 100 |  |  | > 100 |  | > 100 |  |  |  |  |  | 
COc1cc2c(cc1OC(=O)CC(C)O)C1C(OC2=O)C(OC(C)=O)C=C2CCN(C)[C@H]21 (stereo partly drawn) | > 100 | 93.9 | > 100 | > 100 | 69.4 | > 100 |  | > 100 |  | 38.6 |  |  |  | 
CC(=O)NC1=C(OS(=O)(=O)c2ccc(C)cc2)CN(C)C1=O |  |  |  |  |  |  | 24.5 |  |  |  |  |  |  | 
CCCCNCC(=O)O[C@]1(CC)C(=O)OCc2c1cc1n(c2=O)Cc2cc3ccccc3nc2-1 | 56.8 | 6.9 | > 100 | > 100 | 48.9 | 0.236 | 23.1 | 6.21 |  | 2.92 |  |  |  | 
C=CCOC1OC(CO[Si](C)(C)C(C)(C)C)C(OCc2ccccc2)C(OCc2ccccc2)C1OCc1ccccc1 (stereo not drawn) |  |  |  |  |  |  | > 100 |  |  |  |  |  |  | 
O=C(O)C1(P(=O)(O)O)CC1 | > 100 |  | > 100 | > 100 | > 100 | > 100 |  | > 100 |  | > 100 |  |  |  | 
O=C1C(=O)N(c2ccc(Cl)c(Cl)c2)C(=O)C(=O)C1c1nc2ccccc2s1 | > 100 |  | > 100 | > 100 | > 100 | > 100 |  | > 100 |  |  |  |  |  | 
Cc1c(C#N)c(=O)[nH]c(=O)n1CCN1CCN(C(=O)NCCCCCCNC(=O)N2CCN(CCn3c(C)c(C#N)c(=O)[nH]c3=O)CC2)CC1 | > 100 |  | > 100 | > 100 | > 100 | > 100 |  | > 100 |  | > 100 |  |  |  | 
O=S(=O)(c1ccccc1)C(CN1CCCCC1)S(=O)(=O)c1ccccc1 | > 100 |  | > 100 | > 100 |  | > 100 |  | > 100 |  | > 100 |  |  |  | 
CS(=O)(=O)Oc1cccc(/C=N/N=C(\N)NO)c1 | > 100 |  | > 100 |  | > 100 | 65.8 |  | > 100 |  | 32.5 |  |  |  | 
CCCCCCCCCCCCCCCCCC(=O)OCC(COC1OC(COP(=O)(O)O)C(O)C(O)C1O)OC(=O)CCCCCCCCCCCCCCCCC (stereo not drawn) |  |  |  |  |  |  | 20.1 |  |  |  |  |  |  | 
CCCCCCCCCCCC(=O)OCCOCCOCCOCCOCCOCc1ccc(OC)cc1 | > 100 | > 100 | > 100 | > 100 | > 100 | > 100 |  | > 100 |  |  |  |  |  | 
CN(C)c1nc(=Nc2ccc3ccccc3c2)ss1 | > 100 |  | > 100 | > 100 | > 100 |  |  |  |  |  |  |  |  | 
CCOC(=O)C(C)(c1cn(C)c2ccccc12)c1cn(C)c2ccccc12 | > 100 | > 100 | > 100 | > 100 |  | > 100 |  | > 100 |  | > 100 |  |  |  | 
COc1ccc(OC)c(NC(=O)CCC/C(CC(=O)c2ccc(O)c(OC)c2)=N\NC(=O)C[N+](C)(C)C)c1 | > 100 | > 100 | > 100 | > 100 | > 100 | > 100 |  | > 100 |  | > 100 |  |  |  | 
